The target of assay [1] is T1, ACE (Oryctolagus cuniculus, UniProt P12822).
T1 construct: ACE was prepared using fresh rabbit lungs according to the protocol reported by Hayakari et al; from tissue; host or cells: fresh rabbit lungs (supernatant of homogenate)
T1 sequence (P12822 34-1310): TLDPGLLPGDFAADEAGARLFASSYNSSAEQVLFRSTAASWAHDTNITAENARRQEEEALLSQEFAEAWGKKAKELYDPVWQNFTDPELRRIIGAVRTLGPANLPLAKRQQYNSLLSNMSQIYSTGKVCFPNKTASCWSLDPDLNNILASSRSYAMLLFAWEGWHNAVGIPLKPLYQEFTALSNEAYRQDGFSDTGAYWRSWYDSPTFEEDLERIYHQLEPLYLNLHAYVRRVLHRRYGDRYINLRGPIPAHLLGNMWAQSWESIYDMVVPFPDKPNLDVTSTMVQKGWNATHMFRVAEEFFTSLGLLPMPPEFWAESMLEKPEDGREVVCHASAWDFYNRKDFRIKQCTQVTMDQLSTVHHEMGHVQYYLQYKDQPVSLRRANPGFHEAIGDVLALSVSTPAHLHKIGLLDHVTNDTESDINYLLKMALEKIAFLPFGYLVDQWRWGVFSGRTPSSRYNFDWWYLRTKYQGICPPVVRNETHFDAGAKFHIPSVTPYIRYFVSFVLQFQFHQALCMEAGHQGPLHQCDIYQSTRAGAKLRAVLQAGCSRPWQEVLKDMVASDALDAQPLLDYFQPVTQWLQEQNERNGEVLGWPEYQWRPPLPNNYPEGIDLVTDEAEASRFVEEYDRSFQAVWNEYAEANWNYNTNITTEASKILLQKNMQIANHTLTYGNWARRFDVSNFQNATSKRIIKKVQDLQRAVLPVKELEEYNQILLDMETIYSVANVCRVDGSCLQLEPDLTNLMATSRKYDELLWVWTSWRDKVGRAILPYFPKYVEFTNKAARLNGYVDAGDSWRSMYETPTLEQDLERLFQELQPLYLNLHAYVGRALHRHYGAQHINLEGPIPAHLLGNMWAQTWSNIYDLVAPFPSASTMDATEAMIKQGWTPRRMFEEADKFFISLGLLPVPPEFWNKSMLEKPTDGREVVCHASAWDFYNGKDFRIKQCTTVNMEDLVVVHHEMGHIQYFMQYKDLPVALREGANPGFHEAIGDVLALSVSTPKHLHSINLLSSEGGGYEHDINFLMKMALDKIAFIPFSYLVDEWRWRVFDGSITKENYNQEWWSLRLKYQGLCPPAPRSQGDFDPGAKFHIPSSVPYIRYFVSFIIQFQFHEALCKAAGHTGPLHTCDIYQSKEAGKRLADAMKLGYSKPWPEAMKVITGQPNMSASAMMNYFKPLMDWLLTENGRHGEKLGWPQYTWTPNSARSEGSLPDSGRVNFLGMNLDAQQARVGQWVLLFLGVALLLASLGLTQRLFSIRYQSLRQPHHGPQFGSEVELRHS
Description: Assay of ACE inhibitory activity (spectrophotometric, HHL substrate). Format: biochemical, rabbit. The note with it: chemically synthesized peptides; means ± S.D. of three determinations. As for the experimental part: ACE was prepared using fresh rabbit lungs according to the protocol reported by Hayakari et al.[35] with some modifications. After washing with ice-cold 0.15 M NaCl, the rabbit lungs without connective tissues were cut up to small pieces and homogenized in 10 volumes of ice-old 0.1 M sodium borate buffer (pH 8.3) containing 0.25 M sucrose and 0.1 mM PMSF. The homogenate was centrifuged at 9,000 rpm for 40 min at 4 °C after dialysis at 4 °C overnight in 0.1 M sodium borate buffer (pH 8.3). The resulting supernatant was centrifuged at 9,000 rpm for 40 min at 4 °C again. The ACE activity in the supernatant was determined and the supernatant was aliquoted and then stored at −20 °C for further experiments.
The ACE inhibitory activity was assayed by using a spectrophotometric method following the protocol described by Cushman[36] with modifications. Briefly, an aliquot (20 μL) of the sample was mixed with 20 μL ACE and 150 μL 5 mM HHL in 0.1 M borate buffer (pH 8.3) containing 0.3 M NaCl. The reaction mixture was incubated at 37 °C for 30 min, and then the reaction was terminated by adding 500 μL 1 M HCl. The hippuric acid formed was extracted with 1.2 mL ethyl acetate and centrifuged at 4,000 rpm for 10 min. Then 800 μL of the upper organic phase was heat-evaporated at 95 °C for 35 min to remove ethyl acetate. The dried residue was dissolved in 800 μL distilled water and vortex mixed, and the absorbance was measured spectrophotometrically at 228 nm to estimate ACE inhibitory activity. ACE-inhibitory activity was calculated by using the equation 1: […]
where A was the absorbance of the solution containing ACE and inhibitor, B was the absorbance of solution containing ACE and inhibitor but terminated in advance, C was the absorbance of the solution containing ACE without inhibitor, and D was the absorbance of the solution containing ACE without inhibitor but terminated in advance. The concentration of the inhibitor required to inhibit 50% of the ACE activity under the above assay conditions was defined as IC50.

Assay [2] has as its system ACE. The note with it: cited from earlier work.
Assay [3] deals with spontaneously hypertensive rats. Description: Antihypertensive action in spontaneously hypertensive rats (SBP, tail-cuff). To be noted: SHRs, oral, 100 mg/kg BW, at 2 h.
Description: All experiments were performed in accordance with the Regulations of Experimental Animal Administration issued by the State Committee of Science and Technology of the People’s Republic of China and also with the approval of the Animal Experimentation Ethics Committee of The Chinese University of Hong Kong which had been procured prior to the animal experiments. SHRs with systolic blood pressure (SBP) higher than 180 mmHg were randomly divided into six groups after acclimation for 1 week. During the acclimatization period prior to the test, the blood pressures of the rats were measured four times weekly. Each group containing four rats. […] The group treated with crude water extract of T. matsutake received the extract at two different concentrations: 200 mg/kg body weight and 400 mg/kg body weight. SBP was measured thrice at each of the following time points: 0, 0.5, 2, 4, 6 and 8 h after drug/sample administration, using a tail-cuff method with a programmable BP-100A electro-sphygmomanometer (Chengdu Taimeng Software Co., Ltd., Chengdu, China).
Where [4] appears, read: peptide from Hypsizygus marmoreus.
Where [5] appears, read: peptide from Pleurotus cystidiosus.
[6] abbreviates: mushroom species printed in the row: Tricholoma matsutake, ref not given.
The mark [7] stands for this setting: peptide from Tricholoma giganteum.

Where two headings read alike, the source gives them in different places. Where no end group is shown, it is not given here.

Results on 16 compounds are retold here after paper PMC4823785, “A Tricholoma matsutake Peptide with Angiotensin Converting Enzyme Inhibitory and Antioxidative Activities and Antihypertensive Effects in Spontaneously Hypertensive Rats” (Scientific Reports, 2016).

On ACE [1], LLVTLKK [LLVTLKK] registered an IC50 of 950 ± 120 nM.

Regarding GQGGP, the IC50 in the assay on ACE [2] (peptide from Pholiota adiposa) was 100 nM.

IISKIK [IISKIK] displayed an IC50 against ACE [1] of 1190 ± 260 nM. In the case of LSMGSASLSP, in the assay with ACE [2] (setting [4]), the IC50 is 330 nM and the “Mode of inhibitory of ACE” value is “Non-competitive”. Regarding GPSMR, in the assay on ACE [2] (setting [5]), the IC50 is 278000 nM and the “Mode of inhibitory of ACE” value is reported as “Competitive”. Consider AHEPVK, for which, in the assay on ACE [2] (setting [6]), the IC50 was 63000 nM and the “Mode of inhibitory of ACE” value is given as “Competitive”. Further, in the assay with ACE [2] (setting [5]), the IC50 is 62800 nM and the “Mode of inhibitory of ACE” value is listed as “Competitive”. With `C[C@H](CS)C(=O)N1CCC[C@H]1C(=O)O` [captopril], the “maximum decrease in SBP” value in assay [3] came to 38 mm Hg. For RIGLF, in the assay with ACE [2] (peptide from Agaricus bisporus), the IC50 was 116000 nM and the “Mode of inhibitory of ACE” value is recorded as “Competitive”. For LIDKVVK [LIDKVVK], the IC50 on ACE [1] was 620 ± 420 nM. As to GQP, in the assay on ACE [2] (setting [7]), the IC50 is 130 nM and the “Mode of inhibitory of ACE” value is given as “Competitive”. Regarding ILSKLK [ILSKLK], the IC50 against ACE [1] amounted to 4020 ± 310 nM.

WALKGYK [TMP, WALKGYK] had an IC50 at ACE [1] of 400 ± 290 nM. Take RLPSEFDLSAFLRA: in the assay with ACE [2] (peptide from P. cornucopiae), the IC50 is 280 nM and the “Mode of inhibitory of ACE” value was “Competitive”.

Regarding VIQKYP, in the assay with ACE [2] (peptide from Grifola frondosa), the IC50 is 120 nM and the “Mode of inhibitory of ACE” value is on record as “Competitive”.

On to PSSNK, for which, in the assay with ACE [2] (peptide from Agaricus bisporus), the IC50 is 129000 nM and the “Mode of inhibitory of ACE” value is “Non- competitive”. On to RLSGQTIEVTSEYLFRH, for which, in the assay with ACE [2] (peptide from P. cornucopiae), the IC50 is 560 nM and the “Mode of inhibitory of ACE” value was “Non-competitive”.
